Experimental findings from publication PMC5288202, “Simultaneous inhibition of Vps34 kinase would enhance PI3Kδ inhibitor cytotoxicity in the B-cell malignancies” (Oncotarget, 2016) are described below.

A word on the GI50: it is the concentration that inhibits growth by half.

What all share (type): cell-based
For one experiment, the system named is HL-60. Put plainly: Anti-proliferative effect. The conditions noted are these: Homo sapiens, HL-60; AML (FLT3 wt); read-out: GI50 HL-60.
The subject of the next experiment is NB4. Put plainly: Anti-proliferative effect. The conditions noted are these: Homo sapiens; AML-3 (FLT3wt); read-out: GI50 NB4.
The subject of another experiment is Ramos. Put plainly: Anti-proliferative effect. The conditions noted are these: Homo sapiens, Burrkit lymphoma, read-out: GI50 Ramos.
A further experiment concerns CMK. Put plainly: Anti-proliferative effect. The conditions noted are these: Homo sapiens, read-out: GI50 CMK.
The next experiment concerns pERK in MEC-2 cells. Put plainly: pERK immunoblotting. An excerpt:
The following antibodies were purchased from Cell Signaling Technology: Akt(#4691), Phospho-Akt(Thr308)(#4056), Phospho-Akt(Ser473)(#4060), GAPDH, GSK-3β(#9315), Phospho-GSK-3β(#9323), FoxO1(#2880), Phospho-FoxO1 (Thr24)/FoxO3a(Thr32)/FoxO4(Thr28)(#2599), PRAS40(#2691), Phospho-PRAS40 (Thr246)(#2997), 4E-BP1(#9644), p70 S6K(#2708), Phospho-p70 S6K (Thr389)(#9234). SQSTM1/p62 (D5E2)(#8025), LC3B(#12513). PARP(#9532), Caspase-3(#9665), Phospho-p44/42 MAPK (Erk1/2) (Thr202/Tyr204)(#4377), p44/42 MAPK (Erk1/2) (#4695), Phospho-NF-ΚB P65 (Ser 536)(#3033), NF-ΚB P65(#4764). Lysophosphatidic Acid (#sc-201053, Santa Cruz), Recombinant Human PDGF-BB (#220-BB, R&D), Recombinant Human C5a (Peprotech, #300-70), goat anti-IgM (#5C07615, Meridian). LC3B antibody (#3868, CST). Tubulin antibody (#8035, Santa Cruz). EEA1 antibody (#610456, BD Bioscience) and LAMP1 antibody (#24170, Abcam). Secondary antibodies, Alexa488-anti-mouse, Alexa594-anti-rabbit and Prolong gold mounting medium with DAPI were purchased from Invitrogen.

For experiment [1], the system named is MV4-11. Nature of the experiment: Anti-proliferative effect. The note with it: Homo sapiens, MV4-11; AML (FLT3-ITD).
In a further experiment the test system is NOMO-1. Put plainly: Anti-proliferative effect. The conditions noted are these: Homo sapiens, NOMO-1; AML (FLT3wt); read-out: GI50 NOMO-1.
Experiment [2] deals with OCI-AML-2. Nature of the experiment: Anti-proliferative effect. The conditions noted are these: Homo sapiens, OCI-AML2; AML(FLT3wt); read-out: GI50 OCI-AML-2.
The test system of a further experiment is MOLM-13. Put plainly: Anti-proliferative effect. The note with it: Homo sapiens, AML(FLT3-ITD).
The next experiment has as its system U937. Put plainly: Anti-proliferative effect. The note with it: Homo sapiens, U-937; AML(FLT3wt); read-out: GI50 U937.
For the next experiment, the system named is MEC-1. Nature of the experiment: Anti-proliferative effect. The conditions noted are these: Homo sapiens, MEC1; CLL.
In the next experiment the test system is SKM-1. Nature of the experiment: Anti-proliferative effect. The note with it: Homo sapiens, SKM-1; AML(FLT3wt); read-out: GI50 SKM-1.
Another experiment relates to HEL. Nature of the experiment: Anti-proliferative effect. The note with it: Homo sapiens, AML(FLT3wt), read-out: GI50 HEL.
The test system of another experiment is OCI-AML-3. Put plainly: Anti-proliferative effect. The note with it: Homo sapiens, AML(FLT3wt).
A further experiment deals with Hs 505T. Put plainly: Anti-proliferative effect. The note with it: Homo sapiens; CLL; read-out: GI50 Hs 505T.
Experiment [3] relates to Namalwa. Nature of the experiment: Anti-proliferative effect. The note with it: Burrkit lymphoma; read-out: GI50 Namalwa.
For the next experiment, the system named is HT. Put plainly: Anti-proliferative effect. The conditions noted are these: Homo sapiens, B-cell lymphoma, read-out: GI50 HT.
The test system of experiment [4] is MEC-2. Nature of the experiment: Anti-proliferative effect.
The next experiment has as its system MOLM-14. Put plainly: Anti-proliferative effect. The note with it: Homo sapiens, MOLM-14; AML (FLT3-ITD).
Experiment [5] deals with LAMP1 localization in HeLa cells. Nature of the experiment: Immunofluorescence of LAMP1 localization. As to the method: (§1) HeLa cells were treated with different concentrations of inhibitors for 16 hours. For all immunofluorescence experiments, cells were fixed in -20 °C methanol for 5 minutes or 3.7% (v/v) formaldehyde in phosphate-buffered saline (PBS) for 20 minutes. For LC3B staining, cells were fixed in -20 °C methanol. For EEA1 and LAMP1 staining, cells were fixed in PBS+ formaldehyde. Cells were then permeabilized with TBSTx (0.1% Triton X-100), blocked in AbDil (TBSTx + 2% BSA + 0.1% NaN3), and probed with primary and secondary antibodies diluted in AbDil. Cells were rinsed thoroughly with TBSTx and mounted by anti-fade prolong Gold with DAPI. Images were taken using a Leica DMI4000B fluorescent microscope. All experiments were repeated at least three times). […] Cells were lysed in lysis buffer. P62, LC3B, and GAPDH antibodies were used for immunoblotting.

For experiment [6], the system named is LC3B puncta in HeLa cells. Put plainly: Immunofluorescence of LC3B puncta. The conditions noted are these: 16 hours. As to the method: as §1
Experiment [7] deals with Namalwa. Nature of the experiment: Drug combination study (CellTiter-Glo, 72 hours). The note with it: VPS34-IN-1 3.3 μM, normalized to DMSO, read-out: Relative activity(%) (Namalwa). As to the method:
(§2) A combination of the PI3K kinase inhibitor CAL101 with the VPS34 inhibitor VPS34-IN-1, was used to treat the cell lines. Cell proliferation were determined after treatment with the compounds for 72 hours. Cell viability was measured using the CellTiter–Glo assay (Promega, USA), data were normalized to control groups (DMSO) and represented by the mean of three independent measurements with a standard error <20%.
(ATP-based viability assays read luminescence as a measure of living cells.)

For experiment [8], the system named is OCI-AML-2. Nature of the experiment: Drug combination study (CellTiter-Glo, 72 hours). The note with it: Homo sapiens, OCI-AML2, VPS34-IN-1 1.1 μM, normalized to DMSO, read-out: Relative activity(%) (OCI-AML-2). On the procedure:
as §2

Experiment [9] relates to MV4-11. Nature of the experiment: Drug combination study (CellTiter-Glo, 72 hours). The conditions noted are these: Homo sapiens, VPS34-IN-1 3.3 μM, normalized to DMSO, read-out: Relative activity(%) (MV4-11). On the procedure:
as §2

The subject of experiment [10] is MEC-2. Put plainly: Drug combination study (CellTiter-Glo, 72 hours). The conditions noted are these: MEC2, 72 h, read-out: Relative activity(%) (MEC-2). On the procedure:
as §2

Molecules are shown by their SMILES. Like-named read-outs stand apart in the source and are kept apart here.

Consider `CC[C@H](Nc1ncnc2[nH]cnc12)c1nc2cccc(F)c2c(=O)n1-c1ccccc1` [CAL-101], for which the GI50 was over 10000 nM in the experiment on HL-60; over 10 µM with NB4; over 10 µM with Ramos; over 10 µM with CMK (AML(FLT3wt)); over 10000 nM with MV4-11 [1]; over 10000 nM in the experiment with NOMO-1. The GI50 in the experiment on OCI-AML-2 [2] is over 10 µM; in the experiment with MOLM-13, over 10000 nM; in the experiment with U937, over 10000 nM; in the experiment on MEC-1 it was over 10 µM; in the experiment on SKM-1, over 10 µM; in the experiment with HEL, over 10 µM. Further, the GI50 was 2400 nM in the experiment with OCI-AML-3; over 10000 nM in the experiment with Hs 505T; over 10 µM in the experiment on Namalwa [3]; over 10000 nM in the experiment on HT; over 10 µM in the experiment with MEC-2 [4] (MEC2, CLL, read-out: GI50 MEC-2); 7.8 µM with MOLM-14. In the experiment with pERK in MEC-2 cells, the “effect on pERK” value was “significantly inhibited”.

For the compound `CS(=O)(=O)N1CCN(Cc2cc3nc(-c4cccc5[nH]ncc45)nc(N4CCOCC4)c3s2)CC1` [GDC-0941], the GI50 amounted to 160 nM in the experiment on HL-60; 1 µM in the experiment on NB4; 2.1 µM in the experiment with Ramos; 0.3 µM in the experiment with CMK (AML(FLT3wt)); 1400 nM in the experiment on MV4-11 [1]; 1000 nM with NOMO-1. Moreover, the GI50 in the experiment on OCI-AML-2 [2] was 2 µM; in the experiment with MOLM-13, 150 nM; in the experiment on U937, 1600 nM; with SKM-1, 0.3 µM; in the experiment with HEL, over 10 µM; in the experiment on OCI-AML-3 it was 730 nM. Moreover, the GI50 in the experiment on Namalwa [3] came to 0.39 µM; in the experiment with HT, 500 nM; in the experiment with MOLM-14 it was 0.3 µM. In addition, in the experiment with pERK in MEC-2 cells, the “effect on pERK” value is recorded as “significantly inhibited”.

Take `CC(C)(O)CNc1ncc(-c2ccnc(Nc3ccnc(Cl)c3)n2)c(CC2CC2)n1` [VPS34-IN-1]: the GI50 amounted to 510 nM in the experiment with HL-60; 6.4 µM in the experiment on NB4; 3.3 µM in the experiment with Ramos; 5.9 µM in the experiment on CMK; 2400 nM with MV4-11 [1]; 1800 nM with NOMO-1. In addition, the GI50 with OCI-AML-2 [2] was found to be 6.6 µM; in the experiment on MOLM-13, 700 nM; with U937 it was 2100 nM; in the experiment with MEC-1 it was 3.7 µM; in the experiment with SKM-1 it was 6.4 µM; with HEL, 1.7 µM. Moreover, the GI50 in the experiment with OCI-AML-3 is 3600 nM; with Hs 505T it was 3000 nM; in the experiment on Namalwa [3] it was 8.1 µM; with HT, 1400 nM; with MEC-2 [4] (MEC2, read-out: GI50 MEC-2), 3.1 µM; in the experiment with MOLM-14, 7.8 µM. Besides, in experiment [5], the “Effect on lysosome marker LAMP1 localization” value was “affected”. For the same compound, the “Effect on LC3B puncta” value in experiment [6] is recorded as “increased LC3B puncta”. Also, the figures for the activity at 3.3 µM in the experiment on Namalwa [7] and in the experiment with MV4-11 [9] were 77.8% and 43.6%, respectively. Also, the activity at 1.1 µM with OCI-AML-2 [8] came to 82.8%. In the experiment on MEC-2 [10], the activity at 10 µM was 30.4%.
